Reference: patent publication US20260109707A1, “HETEROBIFUNCTIONAL COMPOUNDS AND METHODS OF TREATING DISEASE” (Halda Therapeutics OpCo. Inc., priority 2022, published 2026)
Where two headings read alike, the source gives them in different places.

Key:
VCaP cells = assay: Cellular growth inhibition assay for VCaP cells (CellTiter-Glo, 72 hours); type: cell-based, human
Summary of the method: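 Luminescent viability signal after 72 h of compound exposure gave GI50 values by four-parameter nonlinear regression. Compounds were added in 0.5% DMSO to cells plated 24 h earlier at 5000/well in DMEM containing 10% FBS.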

[1] = test system: T-Rex 293 cell line SC3 cells having increased expression of androgen receptor protein due to exposure to doxycycline; assay: Cellular growth inhibition assay, T-Rex 293 SC3 cells with doxycycline (CellTiter-Glo, 72 hours); type: cell-based; settings: T-Rex 293 SC3 cells with increased androgen receptor expression due to doxycycline (10 ng/mL)
Summary of the method: (§1)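 Growth inhibition is measured in an inducible AR-expressing T-Rex 293 clone, SC3, cultured with or without 10 ng/mL doxycycline in hormone-depleted medium. Test compounds are applied for 72 hours. GI50 values derive from CellTiter-Glo 2.0 signal fitted by four-parameter regression.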

[2] = test system: T-Rex 293 cell line SC3 cells lacking increased expression of androgen receptor protein; assay: Cellular growth inhibition assay, T-Rex 293 SC3 cells without doxycycline (CellTiter-Glo, 72 hours); type: cell-based; settings: T-Rex 293 cell line SC3 cells not exposed to doxycycline (lacking increased androgen receptor expression)
Summary of the method: as §1

GI50 (VCaP cells) | GI50 (VCaP cells; Homo sapiens, VCaP, 72 h) | SMILES | GI50 [1] | GI50 [2] | GI50 ([1]; 72 h) | GI50 ([2]; 72 h)
> 3 µM | – | Cc1sc2c(c1C)C(c1ccc(C3CCC4(CCCN(c5ccc(C(=O)N[C@H]6CC[C@H](Oc7ccc(C#N)c(Cl)c7)CC6)nn5)C4)CC3)cc1)=NC(C(F)(F)F)c1nnc(C)n1-2 (stereo partly drawn) [I-695] | > 3 µM | > 3 µM | – | –
> 3 µM | – | Cc1sc2c(c1C)C(c1ccc(C3CCC4(CCCN(c5ccc(C(=O)N[C@H]6CC[C@H](Oc7ccc(C#N)c(Cl)c7)CC6)nn5)C4)CC3)cc1)=NC(C(F)(F)F)c1nnc(C)n1-2 (stereo partly drawn) [I-696] | > 3 µM | > 3 µM | – | –
> 3 µM | – | Cc1sc2c(c1C)C(c1ccc(C3CCC4(CCCN(c5ccc(C(=O)N[C@H]6CC[C@H](Oc7ccc(C#N)c(Cl)c7)CC6)nn5)C4)CC3)cc1)=NC(C(F)(F)F)c1nnc(C)n1-2 (stereo partly drawn) [I-697] | > 3 µM | > 3 µM | – | –
– | < 0.5 µM | Cc1sc2c(c1C)C(c1ccc(CCCC3CCCN(c4ccc(C(=O)N[C@H]5CC[C@H](Oc6ccc(C#N)c(Cl)c6)CC5)nn4)CC3)cn1)=N[C@@H](C)c1nnc(C)n1-2 (stereo partly drawn) [I-699] | – | > 3 µM | < 0.5 µM | –
< 0.5 µM | – | Cc1sc2c(c1C)C(c1ccc(CCCC3CCCN(c4ccc(C(=O)N[C@H]5CC[C@H](Oc6ccc(C#N)c(Cl)c6)CC5)nn4)CC3)cn1)=N[C@@H](C)c1nnc(C)n1-2 (stereo partly drawn) [I-700] | < 0.5 µM | < 0.5 µM | – | –
– | < 0.5 µM | Cc1sc2c(c1C)C(c1ccc(OC3CCC4(CCN(c5ccc(C(=O)N[C@H]6CC[C@H](Oc7ccc(C#N)c(Cl)c7)CC6)nn5)C4)C3)cc1)=N[C@@H](C)c1nnc(C)n1-2 (stereo partly drawn) [I-701] | < 0.5 µM | < 0.5 µM | – | –
< 0.5 µM | – | Cc1sc2c(c1C)C(c1ccc(OC3CCC4(CCN(c5ccc(C(=O)N[C@H]6CC[C@H](Oc7ccc(C#N)c(Cl)c7)CC6)nn5)C4)C3)cc1)=N[C@@H](C)c1nnc(C)n1-2 (stereo partly drawn) [I-702] | < 0.5 µM | 0.5 to 1.5 µM | – | –
– | 0.5 to 1.5 µM | Cc1sc2c(c1C)C(c1ccc(N3C[C@H]4CN(c5ccc(C(=O)N[C@H]6CC[C@H](Oc7ccc(C#N)c(Cl)c7)CC6)nn5)C[C@H]4C3)c(F)c1)=N[C@@H](C)c1nnc(C)n1-2 [I-703] | – | – | < 0.5 µM | < 0.5 µM
– | 0.5 to 1.5 µM | Cc1sc2c(c1C)C(c1ccc(N3C[C@@]4(C)CN(c5ccc(C(=O)N[C@H]6CC[C@H](Oc7ccc(C#N)c(Cl)c7)CC6)nn5)C[C@@]4(C)C3)cc1)=N[C@@H](C)c1nnc(C)n1-2 [I-704] | – | – | < 0.5 µM | > 3 µM
< 0.5 µM | – | Cc1sc2c(c1C)C(c1ccc(N3C[C@@H]4CN(c5ccc(C(=O)N[C@H]6CC[C@H](Oc7ccc(C#N)c(Cl)c7)CC6)nn5)C[C@H]4C3)cc1)=N[C@@H](C)c1nnc(C)n1-2 [I-706] | < 0.5 µM | < 0.5 µM | – | –
< 0.5 µM | – | Cc1sc2c(c1C)C(c1cccc(N3CCC4(CCN(c5ccc(C(=O)N[C@H]6CC[C@H](Oc7ccc(C#N)c(Cl)c7)CC6)nn5)C4)C3)c1)=N[C@@H](C)c1nnc(C)n1-2 (stereo partly drawn) [I-708] | < 0.5 µM | 1.5 to 3 µM | – | –
– | < 0.5 µM | Cc1sc2c(c1C)C(c1cccc(OC3CCC4(CC3)CCN(c3ccc(C(=O)N[C@H]5CC[C@H](Oc6ccc(C#N)c(Cl)c6)CC5)nn3)C4)c1)=N[C@@H](C)c1nnc(C)n1-2 (stereo partly drawn) [I-709] | < 0.5 µM | > 3 µM | – | –
– | > 3 µM | Cc1sc2c(c1C)C(c1cccc(N3CC4(CCCN(c5ccc(C(=O)N[C@H]6CC[C@H](Oc7ccc(C#N)c(Cl)c7)CC6)nn5)C4)C3)c1)=N[C@@H](C)c1nnc(C)n1-2 [I-710] | – | – | < 0.5 µM | > 3 µM
– | < 0.5 µM | Cc1sc2c(c1C)C(c1cccc(CC3CC4(CCCN(c5ccc(C(=O)N[C@H]6CC[C@H](Oc7ccc(C#N)c(Cl)c7)CC6)nn5)C4)C3)c1)=N[C@@H](C)c1nnc(C)n1-2 (stereo partly drawn) [I-711] | – | – | < 0.5 µM | > 3 µM
< 0.5 µM | – | Cc1sc2c(c1C)C(c1cccc(CC3CC4(CCCN(c5ccc(C(=O)N[C@H]6CC[C@H](Oc7ccc(C#N)c(Cl)c7)CC6)nn5)C4)C3)c1)=N[C@@H](C)c1nnc(C)n1-2 (stereo partly drawn) [I-712] | < 0.5 µM | > 3 µM | – | –
– | < 0.5 µM | Cc1sc2c(c1C)C(c1cccc(CC3CCC4(CC3)CCN(c3ccc(C(=O)N[C@H]5CC[C@H](Oc6ccc(C#N)c(Cl)c6)CC5)nn3)C4)c1)=N[C@@H](C)c1nnc(C)n1-2 (stereo partly drawn) [I-713] | > 3 µM | > 3 µM | – | –
< 0.5 µM | – | Cc1sc2c(c1C)C(c1cccc(CC3CCC4(CC3)CCN(c3ccc(C(=O)N[C@H]5CC[C@H](Oc6ccc(C#N)c(Cl)c6)CC5)nn3)C4)c1)=N[C@@H](C)c1nnc(C)n1-2 (stereo partly drawn) [I-714] | < 0.5 µM | < 0.5 µM | – | –

GI50 (VCaP cells) | GI50 (VCaP cells; Homo sapiens, VCaP, 72 h) | SMILES | GI50 [1] | GI50 [2] | GI50 ([1]; 72 h) | GI50 ([2]; 72 h)
< 0.5 µM | – | Cc1sc2c(c1C)C(c1cccc(OC3CC4(CCCN(c5ccc(C(=O)N[C@H]6CC[C@H](Oc7ccc(C#N)c(Cl)c7)CC6)nn5)C4)C3)c1)=N[C@@H](C)c1nnc(C)n1-2 (stereo partly drawn) [I-715] | < 0.5 µM | 0.5 to 1.5 µM | – | –
– | > 3 µM | Cc1sc2c(c1C)C(c1ccccc1OC1CC3(CCCN(c4ccc(C(=O)N[C@H]5CC[C@H](Oc6ccc(C#N)c(Cl)c6)CC5)nn4)C3)C1)=N[C@@H](C)c1nnc(C)n1-2 (stereo partly drawn) [I-716] | – | – | > 3 µM | > 3 µM
> 3 µM | – | Cc1sc2c(c1C)C(c1ccccc1OC1CC3(CCCN(c4ccc(C(=O)N[C@H]5CC[C@H](Oc6ccc(C#N)c(Cl)c6)CC5)nn4)C3)C1)=N[C@@H](C)c1nnc(C)n1-2 (stereo partly drawn) [I-717] | > 3 µM | > 3 µM | – | –
< 0.5 µM | – | Cc1sc2c(c1C)C(c1ccc(C3CCC4(CC3)CCN(c3ccc(C(=O)N[C@H]5CC[C@H](Oc6ccc(C#N)c(Cl)c6)CC5)nn3)C4)cn1)=NC1(CC1)c1nnc(C)n1-2 (stereo partly drawn) [I-718] | 1.5 to 3 µM | > 3 µM | – | –
< 0.5 µM | – | Cc1sc2c(c1C)C(c1ccc(N3CCC4(CCCN(c5ccc(C(=O)N[C@H]6CC[C@H](Oc7ccc(C#N)c(Cl)c7)CC6)nn5)C4)CC3)cc1)=NC(C(F)(F)F)c1nnc(C)n1-2 (stereo partly drawn) [I-721] | < 0.5 µM | – | – | > 3 µM
> 3 µM | – | Cc1sc2c(c1C)C(c1ccc(N3CCC4(CCCN(c5ccc(C(=O)N[C@H]6CC[C@H](Oc7ccc(C#N)c(Cl)c7)CC6)nn5)C4)CC3)cc1)=NC(C(F)(F)F)c1nnc(C)n1-2 (stereo partly drawn) [I-722] | > 3 µM | > 3 µM | – | –
– | < 0.5 µM | Cc1sc2c(c1C)C(c1ccc(C#CC3CC4(C3)CN(c3ccc(C(=O)N[C@H]5CC[C@H](Oc6ccc(C#N)c(Cl)c6)CC5)nn3)C4)cc1)=NC(C(F)(F)F)c1nnc(C)n1-2 (stereo partly drawn) [I-723] | > 3 µM | > 3 µM | – | –
– | < 0.5 µM | Cc1sc2c(c1C)C(c1ccc(N3CC4(CC(Cc5ccc(C(=O)N[C@H]6CC[C@H](Oc7ccc(C#N)c(Cl)c7)CC6)nn5)C4)C3)cc1)=NC(C(F)(F)F)c1nnc(C)n1-2 (stereo partly drawn) [I-724] | > 3 µM | – | – | > 3 µM
< 0.5 µM | – | Cc1sc2c(c1C)C(c1ccc(N3CC4(CC(Cc5ccc(C(=O)N[C@H]6CC[C@H](Oc7ccc(C#N)c(Cl)c7)CC6)nn5)C4)C3)cc1)=NC(C(F)(F)F)c1nnc(C)n1-2 (stereo partly drawn) [I-725] | < 0.5 µM | > 3 µM | – | –
– | < 0.5 µM | Cc1sc2c(c1C)C(c1ccc(N3CCC4(CCN(c5ccc(C(=O)N[C@H]6CC[C@H](Oc7ccc(C#N)c(Cl)c7)CC6)nn5)CC4)C3)cc1)=NC(C(F)(F)F)c1nnc(C)n1-2 (stereo partly drawn) [I-726] | < 0.5 µM | – | – | > 3 µM
< 0.5 µM | – | Cc1sc2c(c1C)C(c1ccc(N3CCC4(CCN(c5ccc(C(=O)N[C@H]6CC[C@H](Oc7ccc(C#N)c(Cl)c7)CC6)nn5)CC4)C3)cc1)=NC(C(F)(F)F)c1nnc(C)n1-2 (stereo partly drawn) [I-727] | > 3 µM | > 3 µM | – | –
> 3 µM | – | Cc1sc2c(c1C)C(c1ccc(CC3CC4(CCN(c5ccc(C(=O)N[C@H]6CC[C@H](Oc7ccc(C#N)c(Cl)c7)CC6)nn5)CC4)C3)cc1)=NC(C(F)(F)F)c1nnc(C)n1-2 (stereo partly drawn) [I-728] | > 3 µM | – | – | > 3 µM
< 0.5 µM | – | Cc1sc2c(c1C)C(c1ccc(CC3CC4(CCN(c5ccc(C(=O)N[C@H]6CC[C@H](Oc7ccc(C#N)c(Cl)c7)CC6)nn5)CC4)C3)cc1)=NC(C(F)(F)F)c1nnc(C)n1-2 (stereo partly drawn) [I-729] | < 0.5 µM | > 3 µM | – | –
0.5 to 1.5 µM | – | Cc1sc2c(c1C)C(c1ccc(N3CCC4(CCN(c5ccc(C(=O)N[C@H]6CC[C@H](Oc7ccc(C#N)c(Cl)c7)CC6)nn5)C4)C3)c(F)c1)=N[C@@H](C)c1nnc(C)n1-2 (stereo partly drawn) [I-731] | – | – | < 0.5 µM | < 0.5 µM
< 0.5 µM | – | Cc1sc2c(c1C)C(c1ccc(N3CCC4(CCN(c5ccc(C(=O)N[C@H]6CC[C@H](Oc7ccc(C#N)c(Cl)c7)CC6)nn5)C4)C3)cc1F)=N[C@@H](C)c1nnc(C)n1-2 (stereo partly drawn) [I-732] | – | – | < 0.5 µM | < 0.5 µM
< 0.5 µM | – | Cc1sc2c(c1C)C(c1ccc(OC3CCC4(CCN(c5ccc(C(=O)N[C@H]6CC[C@H](Oc7ccc(C#N)c(Cl)c7)CC6)nn5)C4)C3)cc1)=N[C@@H](C)c1nnc(C)n1-2 (stereo partly drawn) [I-733] | – | – | < 0.5 µM | < 0.5 µM

SMILES | GI50 (VCaP cells) | GI50 (VCaP cells; Homo sapiens, VCaP, 72 h) | GI50 [1] | GI50 [2] | GI50 ([1]; 72 h) | GI50 ([2]; 72 h)
Cc1sc2c(c1C)C(c1ccc(N3C4CCC3CC3(CCN(c5ccc(C(=O)N[C@H]6CC[C@H](Oc7ccc(C#N)c(Cl)c7)CC6)nn5)C3)C4)cc1)=N[C@@H](C)c1nnc(C)n1-2 (stereo partly drawn) [I-698] | – | < 0.5 µM | < 0.5 µM | < 0.5 µM | – | –
Cc1sc2c(c1C)C(c1ccc(N3C4CCCC3CC3(CCN(c5ccc(C(=O)N[C@H]6CC[C@H](Oc7ccc(C#N)c(Cl)c7)CC6)nn5)C3)C4)cc1)=N[C@@H](C)c1nnc(C)n1-2 (stereo partly drawn) [I-730] | – | < 0.5 µM | < 0.5 µM | > 3 µM | – | –
